For experiment [1], the system named is A2058 cells. The experiment in a line: A2058 cell migration (scratch closure). Type of experiment: cell-based. The conditions noted are these: 30 μM inhibitor, 48 hours; for ATX-stimulated cell migration: ATX 100 ng/ml; for LPC+ATX-stimulated cell migration: LPC 18:1 10 μM + ATX 100 ng/ml; for LPC-stimulated cell migration: LPC 18:1 10 μM. The protocol: A2058 cells were seeded in 96-well plates at a density of 50,000 cells per well in complete growth medium (DMEM+10% FBS+penicillin/streptomycin+L-glutamine). Cells were allowed to equilibrate for 24 hours at 37° C. with 5% CO2. Cells were then serum-deprived for 24 hours in DMEM+0.1% BSA+penicillin/streptomycin+L-glutamine (serum-free medium). […] The width of the injury was measured at T0, 4 hours (data not shown), 24 hours (data not shown), and 48 hours (shown above) after injury/treatment using the 10× objective of the phase-contrast microscope and the Micron USB software package. Data represent mean percent closure±SD. n=3 for each experiment. […] However, these reductions were also not statistically significant.

Experiment [2] deals with T1, ATX (Homo sapiens, UniProt Q13822). Conditions: for Inhibition Mechanism: FS-3 substrate.
The target of experiment [3] is T1, ATX. The experiment can be described thus: biochemical. The conditions noted are these: Ki.
For experiment [4], the target named is T1, ATX. The experiment can be described thus: ATX inhibition assay with FS-3 substrate. Format: biochemical. More on the design: conditioned serum-free medium (CCM) from MDA-MB-435 cells as the source of ATX; endogenous in cells; host or cells: MDA-MB-435 cells (about 10x concentrated serum-free conditioned medium). Conditions: for % Response at 10 μM (FS-3): FS-3 hydrolysis normalized to vehicle control (low = strong inhibition), mean ± S.D.
Experimental: ATX inhibition was assayed using the substrate FS-3 (Echelon Biosciences, Inc., Salt Lake City, Utah, USA). The FS-3 assay used ˜10 times concentrated conditioned serum-free medium (CCM) from MDA-MB-435 cells as the source of ATX, while CCM comprised one-third of the total volume.
All assays were performed in 96-well plates with data read at 1 minute intervals by a Synergy2 system (BioTek, Winooski, Vt.). […] Results are shown at one hour, at which point all fluorescence and absorbance changes as a function of time were linear. All readings were normalized to vehicle control after subtraction of fluorescence in the absence of CCM. Data are shown as the mean±S.D. of at least three wells. All experiments were repeated at least twice and results are shown.

In experiment [5] the target is T1, ATX. More on the design: conditioned serum-free medium (CCM) from MDA-MB-435 cells as the source of ATX; endogenous in cells; host or cells: MDA-MB-435 cells (about 10x concentrated serum-free conditioned medium). The conditions noted are these: 10 μM compound, 1 μM FS-3; earlier screen; cited from earlier work.
Experiment [6] addresses T2, human NPP6 (Homo sapiens, UniProt Q6UWR7).
T2 construct: transfected with human NPP6ex^51 or human NPP7ex expression plasmids; made in house; host or cells: HEK293 cells, transient transfection, pcDNA3.1(+); unconcentrated conditioned medium (CM)
T2 sequence (Q6UWR7 23-419 limits assumed): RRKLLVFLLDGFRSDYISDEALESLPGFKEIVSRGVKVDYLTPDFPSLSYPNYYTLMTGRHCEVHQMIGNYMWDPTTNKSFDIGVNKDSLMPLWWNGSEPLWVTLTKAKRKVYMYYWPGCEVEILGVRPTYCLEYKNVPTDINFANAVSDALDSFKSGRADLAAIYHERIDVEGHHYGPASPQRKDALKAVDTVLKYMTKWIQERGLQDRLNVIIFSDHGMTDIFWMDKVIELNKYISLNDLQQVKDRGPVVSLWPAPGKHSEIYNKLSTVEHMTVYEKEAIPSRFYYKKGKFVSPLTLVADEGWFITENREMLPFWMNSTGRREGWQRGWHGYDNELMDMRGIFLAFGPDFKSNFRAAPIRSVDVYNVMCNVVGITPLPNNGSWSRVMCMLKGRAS
The experiment in a line: Determination of NPP6 inhibition (pNPPC substrate). Format: biochemical. Conditions: 10 μM inhibitor.

Experiment [7] concerns the target T3, human NPP7 (Homo sapiens, UniProt Q6UWV6).
T3 construct: transfected with human NPP6ex^51 or human NPP7ex expression plasmids; made in house; host or cells: HEK293 cells, transient transfection, pcDNA3.1(+); conditioned medium concentrated about 10x (CCM)
T3 sequence (Q6UWV6 22-433 limits assumed): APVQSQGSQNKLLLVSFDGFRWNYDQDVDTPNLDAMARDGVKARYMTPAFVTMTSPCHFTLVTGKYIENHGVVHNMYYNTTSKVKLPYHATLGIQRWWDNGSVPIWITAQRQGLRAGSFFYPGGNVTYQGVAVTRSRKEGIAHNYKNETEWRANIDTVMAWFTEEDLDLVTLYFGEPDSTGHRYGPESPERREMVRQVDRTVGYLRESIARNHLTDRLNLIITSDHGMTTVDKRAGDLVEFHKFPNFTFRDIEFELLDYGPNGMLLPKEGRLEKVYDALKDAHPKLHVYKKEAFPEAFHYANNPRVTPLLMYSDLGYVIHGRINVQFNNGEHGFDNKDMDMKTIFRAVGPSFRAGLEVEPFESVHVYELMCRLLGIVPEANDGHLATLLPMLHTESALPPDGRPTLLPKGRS
The experiment can be described thus: Determination of NPP7 inhibition (pNPPC substrate). Type of experiment: biochemical. Conditions: 10 μM inhibitor.

Experiment [8] deals with T1, ATX. Also on record: conditioned serum-free medium (CCM) from MDA-MB-435 cells as the source of ATX; endogenous in cells; host or cells: MDA-MB-435 cells (about 10x concentrated serum-free conditioned medium). Conditions: cited from earlier work.
In experiment [9] the test system is melanoma metastasis. Conditions: micromolar concentrations; cited from earlier work.

Entries after “also recorded” stand apart in the source; their conditions may differ. Like-named read-outs stand apart in the source and are kept apart here.

As for `CCn1cc(C(=O)O)c(=O)c2cnc(N3CCN(C(=S)Nc4cc(Cl)cc(Cl)c4)CC3)nc21` [Compound 1], in experiment [1], the ATX-stimulated cell migration entry is listed as “significantly inhibited”, the “LPC+ATX-stimulated cell migration” value is on record as “significantly inhibited; also recorded: statistically significant inhibition” and the LPC-stimulated cell migration result is listed as “the reduction was not statistically significant”. In experiment [2], the “mechanism of ATX inhibition” value is “mixed-mode” and the “Inhibition Mechanism” value is listed as “Mixed”. The molecule further showed an inhibition constant (Ki) in [3] of 1600 nM. In addition, in [4] (10 μM compound, FS-3 1 μM), the “block of ATX-mediated hydrolysis of FS-3” value was “completely blocked”. Besides, in experiment [4] (10 μM compound), the “% Response at 10 μM (FS-3)” value amounted to 0.0 ± 4.0%. In experiment [4] (ATX-mediated FS-3 hydrolysis), this molecule gave a half-inhibitory concentration (IC50) of 1600 ± 400 nM. Also, the “inhibition of ATX-catalyzed hydrolysis of FS-3, initial single concentration screen” value in experiment [5] is listed as “fully inhibited”.
Turning to `CCn1cc(C(=O)O)c(=O)c2cnc(N3CCN(C(=S)Nc4cccc(Cl)c4)CC3)nc21` [Compound 14, 2-(4-{[(3-chlorophenyl)amino]carbonothioyl}-1-piperazinyl)-8-ethyl-5-oxo-5,8-dihydropyrido[2,3-d]pyrimidine-6-carboxylic acid], in experiment [6], the “effect on activity of NPP6” value is “None of the compounds affected the activity”. In experiment [7], the “effect on activity of NPP7” value is given as “None of the compounds affected the activity”. In [1], the ATX-stimulated cell migration result is listed as “appeared to decrease”, the “LPC+ATX-stimulated cell migration” value is given as “appeared to decrease” and the LPC-stimulated cell migration result is on record as “appeared to decrease”. In [2], the “mechanism of ATX inhibition” value is on record as “mixed-mode” and the “Inhibition Mechanism” value is “Mixed”. In addition, in experiment [4] (10 μM compound), the “% Response at 10 μM (FS-3)” value is 9.7 ± 0.9%. In addition, the “single dose response comparison by aromatic substituent and position” value in [4] (Table 2, same values as % Response at 10 μM) came to 9.7 ± 0.9. In addition, the inhibition at 10 µM in [4] (single dose 10 μM, % inhibition, read-out: inhibition of ATX-mediated hydrolysis of FS-3) was at least 50%.
`CCn1cc(C(=O)O)c(=O)c2cnc(N3CCN(C(=S)Nc4cc(Cl)ccc4Cl)CC3)nc21` [Compound 20, 2-(4-{[(2,5-dichlorophenyl)amino]carbonothioyl}-1-piperazinyl)-8-ethyl-5-oxo-5,8-dihydropyrido[2,3-d]pyrimidine-6-carboxylic acid]: in [6], the “effect on activity of NPP6” value is recorded as “None of the compounds affected the activity”. Moreover, in experiment [7], the “effect on activity of NPP7” value is on record as “None of the compounds affected the activity”. Moreover, in experiment [1], the ATX-stimulated cell migration entry was “appeared to decrease”, the “LPC+ATX-stimulated cell migration” value is on record as “appeared to decrease” and the LPC-stimulated cell migration result was “appeared to decrease”.
As to `CCCCCCCCCCCCC/C=C/[C@@H](O)[C@@H](N)COP(=O)(O)O` [Compound S1P, sphingosine 1-phosphate], the “mechanism of inhibition (reported)” value in experiment [8] was “mixed-mode”.
With `CCCCCCCCc1ccc(CCC(N)(CO)COP(=O)(O)O)cc1` (stereo not shown) [FTY720-phosphate], in experiment [8], the “mechanism of inhibition (reported)” value is given as “competitive”. In addition, the Ki in [8] (read-out: Ki (reported)) was 200 nM.
In the case of `N[C@@H](Cc1c[nH]cn1)C(=O)O` [L-histidine], the “mechanism of inhibition (reported)” value in [8] is reported as “non-competitive”.
For `O=[As](O)(O)c1ccc(Cc2ccc([As](=O)(O)O)cc2)cc1` [NSC 48300], the “inhibition of melanoma metastasis” value in experiment [9] is reported as around 100%. Also, in experiment [8], the “mechanism of inhibition (reported)” value is listed as “competitive”.

Usually Ki stands for the dissociation constant of the complex between target and ligand, obtained from inhibition or displacement. In general, IC50 refers to the concentration needed to halve the response being measured. The low end stands for higher potency, the high end for lower potency. In general, inhibition refers to the relative decrease from the control value, in per cent.

The values above are taken from US8497371B2, “Pipemidic acid derivative autotaxin inhibitors” (University of Memphis Research Foundation, priority 2009, dated 2013).
